The series in a line: NOSTRA phase III trial: exposure control (pharmacokinetics), samples after end of infusion and 12 hours after end of infusion. The format is in vivo, human. Conditions: TBI patients. How it is done: An exposure control was performed with samples collected after end of infusion and 12 hours after end of infusion. Due to the high sensibility of Ronopterin to oxidation, no utilizable values could be obtained for Ronopterin and, therefore, the first metabolite, 4-amino-dihydrobiopterin, was used as a surrogate. The mean absolute concentration for the first metabolite of Ronopterin was 1071 ng/mL at the end of the infusion and 476 ng/mL 12 hours later (56% elimination). The mean absolute value for the second Ronopterin metabolite was 52 ng/mL at the end of the infusion and 37 ng/mL 12 hours after end of infusion.

Where [1] appears, read: Ronopterin 17 mg/kg infused for 48 hours.

Regarding `C[C@H](O)[C@H](O)C1=Nc2c(N)nc(N)nc2NC1` [4-amino-dihydrobiopterin], the “elimination within 12 hours after end of infusion” value worked out at 56%. Also, under setting [1], the “mean absolute concentration 12 hours after end of infusion” value worked out at 476 ng/mL and the “mean absolute concentration at the end of the infusion” value is reported as 1071 ng/mL.

These data come from US12171766B2, “Methods of treating patients suffering from brain injury and methods of increasing the value of the extended Glasgow Outcome Scale of patients suffering from brain injury” (VERINOS OPERATIONS GMBH, priority 2021, dated 2024).
